Assay results as given in US11179363B2, “Non-steroidal selective glucocorticoid receptor agonistic modulators (SEGRAMs) and uses thereof” (ASSOCIATION POUR LA RECHERCHE À L'IGBMC (ARI), priority 2017, dated 2021).

Tests used:
[1] = test system: OVA-induced asthma-like allergic lung inflammation; experiment: Ovalbumin (OVA)-induced asthma-like allergic lung inflammation; type: in vivo, mice; conditions: OVA model
Description: Glucocorticoids have been (Pearlman et al., 1997. Ann Allergy Asthma Immunol. 78(4):356-62), and are still, widely used in asthma therapy. In order to investigate the possible CpdX anti-inflammatory activity in vivo, mice were sensitized and challenged with either ovalbumin (OVA) or house dust mite (HDM) to induce an asthma-like allergic lung inflammation.
Mice were intraperitoneally sensitized with either 50 μg OVA together with alum or with alum alone on D0, D7 and D14. Mice were then subdivided into three groups, and on D19, D20 and D21, they were intranasally (i.n.) challenged with 10 μg OVA. The first and the second group received intranasally 0.5 mg/kg of body weight of Dex or CpdX respectively, while the third group served as a control.
On D22, the lung allergic inflammation was assessed for each mouse by examination of the bronchoalveolar lavage fluid (BAL). The total BAL cells, eosinophils, neutrophils, macrophages and lymphocytes were counted. RNA transcripts were extracted from lung samples and RNA transcripts of IL-1β, IL-6, IL-4, IL-5, IL-10, IL-13, Eotaxin, CCL4 and TNFα were analyzed by q-RT-PCR. Histological (with H&E staining) and immunohistochemical (with eosinophil-specific and neutrophil-specific antibodies) analyses of lung tissues were also carried out.

[2] = biological target: T1, GR (Homo sapiens, UniProt P04150); conditions: cited from earlier work
T1 sequence (P04150 1-777): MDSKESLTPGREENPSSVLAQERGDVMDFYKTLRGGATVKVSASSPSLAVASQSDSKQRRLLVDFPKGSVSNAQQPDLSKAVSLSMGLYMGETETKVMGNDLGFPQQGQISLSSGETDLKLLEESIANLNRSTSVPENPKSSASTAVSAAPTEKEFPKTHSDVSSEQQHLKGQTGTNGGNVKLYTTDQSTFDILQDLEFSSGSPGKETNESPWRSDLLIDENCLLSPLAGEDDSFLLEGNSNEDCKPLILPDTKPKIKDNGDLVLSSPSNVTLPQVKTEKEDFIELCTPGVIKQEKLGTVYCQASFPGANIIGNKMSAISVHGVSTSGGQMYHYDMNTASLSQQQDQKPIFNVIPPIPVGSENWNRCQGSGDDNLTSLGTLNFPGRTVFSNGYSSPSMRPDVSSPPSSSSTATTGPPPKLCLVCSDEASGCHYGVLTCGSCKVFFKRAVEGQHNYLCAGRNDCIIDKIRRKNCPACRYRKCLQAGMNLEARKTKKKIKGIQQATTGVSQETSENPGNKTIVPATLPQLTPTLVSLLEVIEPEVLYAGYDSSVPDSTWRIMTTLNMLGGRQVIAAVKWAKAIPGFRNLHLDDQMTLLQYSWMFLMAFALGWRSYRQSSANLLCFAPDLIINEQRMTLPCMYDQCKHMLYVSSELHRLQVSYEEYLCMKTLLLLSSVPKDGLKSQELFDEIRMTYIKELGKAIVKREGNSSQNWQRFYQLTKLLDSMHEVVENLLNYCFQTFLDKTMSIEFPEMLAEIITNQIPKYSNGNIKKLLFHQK

[3] = biological target: T2, glucocorticoid receptor (GR) (Mus musculus, UniProt P06537); experiment: In vivo transcriptional analysis (q-RT-PCR) of the three GR functions in mouse ears; parameters: species or system Balb/C mice; conditions: topical 18 hours
T2 construct: RNA transcripts were then extracted from mouse ears; from tissue; host or cells: ear skin of Balb/C mice (in vivo topical treatment)
T2 sequence (P06537 1-792): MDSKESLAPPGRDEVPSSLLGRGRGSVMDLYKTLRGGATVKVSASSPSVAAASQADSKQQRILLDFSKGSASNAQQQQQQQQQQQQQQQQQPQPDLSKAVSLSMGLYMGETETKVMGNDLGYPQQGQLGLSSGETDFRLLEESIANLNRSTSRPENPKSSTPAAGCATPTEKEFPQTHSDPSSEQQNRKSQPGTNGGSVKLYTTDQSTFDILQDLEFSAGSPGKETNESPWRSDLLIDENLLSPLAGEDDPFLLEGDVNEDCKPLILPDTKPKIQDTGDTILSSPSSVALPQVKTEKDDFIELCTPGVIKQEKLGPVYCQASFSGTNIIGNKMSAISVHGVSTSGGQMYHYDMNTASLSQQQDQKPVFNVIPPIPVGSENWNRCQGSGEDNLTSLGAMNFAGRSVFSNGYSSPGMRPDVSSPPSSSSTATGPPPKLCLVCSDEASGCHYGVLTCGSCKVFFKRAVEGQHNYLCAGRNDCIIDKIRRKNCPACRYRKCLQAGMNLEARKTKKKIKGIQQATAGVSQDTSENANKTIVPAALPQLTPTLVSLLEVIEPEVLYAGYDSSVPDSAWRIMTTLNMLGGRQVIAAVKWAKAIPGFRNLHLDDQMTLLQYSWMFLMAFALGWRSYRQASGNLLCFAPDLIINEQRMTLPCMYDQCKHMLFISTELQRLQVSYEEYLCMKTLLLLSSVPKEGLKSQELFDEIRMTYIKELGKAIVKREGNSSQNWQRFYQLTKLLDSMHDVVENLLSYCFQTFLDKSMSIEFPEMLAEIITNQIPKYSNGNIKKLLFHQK
Description: RNA transcripts were then extracted from mouse ears and the transcripts of 4 genes were analyzed by q-RT-PCR: • (i) the directly GR-transactivated gene of the mTOR inhibitor REDD1, • (ii) the GR-directly transrepressed gene of keratin 5 (K5) and • (iii) the GR-indirectly “tethered” transrepressed genes of interleukin-1β (IL-1β) and interleukin-6 (IL-6), both being activated in presence of 12-O-tetradecanoylphorbol-13-acetate (TPA). Results

## COc1ccc(F)cc1C(C)(C)CC(O)(CNc1ccc2c(c1)COC2=O)C(F)(F)F (racemic) [CpdX, 5-[4-(5-fluoro-2-methoxyphenyl)-2-hydroxy-4-methyl-2-(trifluoromethyl)pentylamino]-isobenzofuran-1(3H)-one]
[1]; data not shown
  eosinophils and neutrophils in lung (immunohistochemistry): similarly decreased
[1]; intranasal 0.5 mg/kg, D22
  number of macrophages in BAL: unchanged
[1]; intranasal 0.5 mg/kg, D22, vs control group
  total number of BAL cells, eosinophils, neutrophils and lymphocytes: significantly decreased
[1]; lung paraffin sections
  peribronchiolar and perivascular inflammatory cell infiltration (histology): strongly decreased
[1]; q-RT-PCR
  lung expression of IL-1β, IL-6, IL-4, IL-5, IL-10, IL-13, Eotaxin, CCL4 and TNFα: significantly and similarly decreased
[2]
  indirect tethered transrepression activity of the GR: still inducing
  transactivation and direct transrepression functions of the GR: does not induce
[3]; 1 nmole/cm^2
  GR functions induced (direct transactivation, direct transrepression, indirect tethered transrepression): selectively exhibits an indirect tethered transrepression activity
[3]; 1 nmole/cm^2, vs Vehicle
  K5 gene relative RNA expression (GR direct transrepression): unchanged
  REDD1 gene relative RNA expression (GR direct transactivation): unchanged
